Drawing on PubChem BioAssay (NCI), this text covers TGI and GI50 for 35 compounds.

Among the test systems are HOP-18 NSCLC; DMS 114 small cell lung; M19-MEL melanoma; LXFL 529 NSCLC; DMS 273 small cell lung; XF 498 CNS; SNB-78 CNS; RXF-631 renal; MDA-N.
Experiment in all cases: inhibition of tumour cell growth, NCI panel, 48 h

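Compound exposure: 48 hours, 5 concentrations, 96-well plates. At the GI50, growth is halved. TGI denotes the concentration required for complete inhibition of growth.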

With `CN=NN(C)C(=O)NC`, the TGI in the test with HOP-18 NSCLC, in the test with DMS 114 small cell lung, in the test with M19-MEL melanoma and with LXFL 529 NSCLC was more than 100 µM each time.
As for `O=C(CN1CCCCC1)N1CCc2c([nH]c3ccccc23)C1c1cccnc1` (stereo unspecified), the TGI in the test with DMS 273 small cell lung, in the test on HOP-18 NSCLC, in the test on XF 498 CNS, with DMS 114 small cell lung, in the test on M19-MEL melanoma and in the test with SNB-78 CNS was more than 100 µM in each case. The TGI in the test on LXFL 529 NSCLC and in the test on RXF-631 renal was more than 100 µM throughout.
Regarding `O=C(O)c1cc(O)c2c(c1)C(C1c3cc(C(=O)O)cc(O)c3C(=O)c3c(OC4OC(CO)C(O)C(O)C4O)cccc31)c1cccc(OC3OC(CO)C(O)C(O)C3O)c1C2=O` (stereo unspecified), in the test on MDA-N, the GI50 is more than 100 µM and the TGI is more than 100 µM.
For `COC(=O)/C=C/C1C(C(=O)OC)C2(C(=O)OC)CCC1(C(=O)OC)N2` (stereo unspecified), the TGI in the test on DMS 273 small cell lung, in the test with HOP-18 NSCLC, in the test on XF 498 CNS, with M19-MEL melanoma, with SNB-78 CNS and in the test with LXFL 529 NSCLC was more than 100 µM throughout. The compound further returned a TGI with RXF-631 renal of more than 100 µM.
Take `N#CC1Nc2ccccc2[C@@H](O)C1O` (stereo partly specified): the TGI in the test on MDA-N is more than 100 µM.
Regarding `N#CC(/C(=N/NC(=O)C(=O)NN)C(=O)NC12CC3CC(CC(C3)C1)C2)c1ccccc1` (stereo unspecified), the TGI in the test on DMS 273 small cell lung, with HOP-18 NSCLC, in the test on DMS 114 small cell lung, in the test on M19-MEL melanoma, in the test on SNB-78 CNS and in the test with LXFL 529 NSCLC was more than 100 µM each time. The TGI in the test on RXF-631 renal was more than 100 µM.
With `CCOC(=O)c1[nH]c(COC(C)=O)c(CCCOC(C)=O)c1CCCOC(C)=O`, the TGI with DMS 273 small cell lung, in the test with XF 498 CNS, in the test on SNB-78 CNS and in the test with LXFL 529 NSCLC was more than 100 µM throughout.
For the compound `O=C(O)c1cccc(OCCO)c1`, the TGI in the test on MDA-N was more than 100 µM.
For the compound `CCOC(=O)C1N(S(=O)(=O)c2ccc(C)cc2)CCC12C(c1ccc(OC)cc1)NC1CCCCC12` (stereo unspecified), the TGI in the test with DMS 273 small cell lung, in the test on DMS 114 small cell lung, in the test with M19-MEL melanoma, in the test on SNB-78 CNS, with LXFL 529 NSCLC and in the test with RXF-631 renal was more than 100 µM throughout.
Consider `CC1=C(C(=O)Nc2c(C)cccc2C)C(c2ccccc2Cl)C(C(=O)Nc2c(C)cccc2C)=C(C)N1`, for which the TGI in the test with DMS 273 small cell lung, in the test with XF 498 CNS, with DMS 114 small cell lung, in the test with M19-MEL melanoma, in the test on SNB-78 CNS and with LXFL 529 NSCLC was more than 100 µM throughout.
On to `O=C(/C=C/c1c(O)ccc2ccccc12)c1ccc2ccccc2c1`, for which the TGI is more than 100 µM in the test with DMS 273 small cell lung, more than 100 µM in the test with DMS 114 small cell lung, 35.9 µM in the test with M19-MEL melanoma and more than 100 µM in the test with SNB-78 CNS.
`Nc1nc(Cl)cc(NCCO)n1` showed a TGI in the test with MDA-N of more than 100 µM.
For `CCCCCCCCCc1cc(=O)c2c(O)cccc2o1`, the TGI is more than 100 µM with DMS 273 small cell lung; more than 100 µM in the test on HOP-18 NSCLC; more than 100 µM in the test with XF 498 CNS; more than 100 µM in the test on DMS 114 small cell lung; more than 10 µM with M19-MEL melanoma; more than 100 µM in the test on SNB-78 CNS. In addition, the TGI in the test on LXFL 529 NSCLC and with RXF-631 renal was more than 100 µM in each case.
Turning to `O=C(CCC(=O)Nc1cccc(Cl)c1)CC(=O)c1ccc(Cl)cc1`, the TGI in the test on DMS 273 small cell lung, with XF 498 CNS, with SNB-78 CNS, in the test on LXFL 529 NSCLC and in the test with RXF-631 renal was more than 100 µM each time.
In turn, `O=C(O)c1ccccc1-c1ccccc1C(=O)Nc1ccc2c(c1)Cc1cc(F)ccc1-2` showed a TGI in the test on MDA-N of 75.5 µM.
Consider `CCOC(=O)[C@H](CCCNC(=O)OC(C)(C)C)NCc1ccc(OC)c(OC)c1`, for which the TGI in the test with DMS 273 small cell lung, with HOP-18 NSCLC, with XF 498 CNS, with DMS 114 small cell lung, in the test with M19-MEL melanoma and with LXFL 529 NSCLC was more than 100 µM each time. In the test on RXF-631 renal, this compound showed a TGI of more than 100 µM.
Turning to `O=C(O)Cc1c(O)ccc2ccccc12`, in the test with MDA-N, the TGI was more than 100 µM.
Same read-out and setting: for `CCCS(=O)(=O)Nc1ccc(Nc2c3ccccc3nc3ccccc23)c(OC)c1` the value was 20.2 µM; for `O/N=C\c1c(O)ccc2ccccc12`, more than 100 µM.
For `N#CC1(C2SCCS2=O)C2=C(C(=O)c3ccccc3C2=O)N2CCCC21` (stereo unspecified), the TGI in the test with DMS 273 small cell lung was 12.2 µM; with HOP-18 NSCLC, 8.16 µM; with XF 498 CNS, 8.15 µM; in the test on DMS 114 small cell lung it was 6 µM; in the test with M19-MEL melanoma it was 0.788 µM; in the test on SNB-78 CNS it was 6.89 µM. Besides, the results for the TGI with LXFL 529 NSCLC, in the test on MDA-N and with RXF-631 renal were 8.06 µM, 1.55 µM and 5.3 µM, respectively.
`N#CC(C#N)=c1[nH]c2cccc3c2-c2c(cccc2c3=C(C#N)C#N)[nH]1`: the TGI in the test on DMS 273 small cell lung, in the test with HOP-18 NSCLC, in the test on XF 498 CNS, in the test on DMS 114 small cell lung, in the test on SNB-78 CNS and in the test on LXFL 529 NSCLC was more than 100 µM in each case.
For `CC(C)(C)N1CC2(CCCCC2)C1=O`, the TGI in the test on DMS 273 small cell lung, with HOP-18 NSCLC, with DMS 114 small cell lung, in the test with M19-MEL melanoma and with SNB-78 CNS was more than 100 µM in each case.
With `O=S(O)CCCCSSCc1ccccc1CSSCCCCS(=O)O`, the TGI in the test with DMS 273 small cell lung is more than 100 µM; in the test with HOP-18 NSCLC, more than 100 µM; in the test with XF 498 CNS it was 25.5 µM; with DMS 114 small cell lung, 35.2 µM; in the test on M19-MEL melanoma, 21.2 µM; in the test on LXFL 529 NSCLC, 24.8 µM. The compound also displayed a TGI in the test on RXF-631 renal of more than 100 µM.
On to `N#CC(C(=O)/C(=N/Nc1nc(=S)[nH]n1N)C(C#N)c1ccccc1)c1ccccc1` (stereo unspecified), for which the TGI with DMS 273 small cell lung, in the test on HOP-18 NSCLC, with XF 498 CNS, with DMS 114 small cell lung, in the test on M19-MEL melanoma and in the test on SNB-78 CNS was more than 100 µM in each case. The TGI in the test on LXFL 529 NSCLC and with RXF-631 renal was more than 100 µM in each case.
In the case of `Cc1cc(C)n(CCNCCn2nc(C)cc2C)n1`, the TGI in the test on DMS 273 small cell lung is more than 100 µM; in the test with XF 498 CNS it was more than 1 µM; in the test with DMS 114 small cell lung, more than 100 µM; with M19-MEL melanoma, more than 100 µM; in the test with SNB-78 CNS it was more than 100 µM; in the test with LXFL 529 NSCLC, more than 100 µM.
Regarding `O=C(CCC/C(CC(=O)c1ccc(Br)cc1)=N\O)Nc1ccccc1`, the TGI in the test on HOP-18 NSCLC, in the test with XF 498 CNS, with DMS 114 small cell lung, in the test with M19-MEL melanoma, in the test on SNB-78 CNS and with LXFL 529 NSCLC was more than 100 µM in each case.
Regarding `COc1ccccc1NC(=O)C1=C(C)NC(C)=C(C(=O)Nc2ccccc2OC)C1c1ccc([N+](=O)[O-])cc1`, the TGI in the test with DMS 273 small cell lung was more than 100 µM; in the test on HOP-18 NSCLC it was more than 100 µM; with XF 498 CNS, 33.7 µM; in the test on DMS 114 small cell lung, more than 100 µM; with SNB-78 CNS it was more than 100 µM; in the test with LXFL 529 NSCLC it was more than 100 µM. In the test on RXF-631 renal, this compound displayed a TGI of more than 100 µM.
For `CCOC(=O)CCc1c(C)c2c(OC(C)=O)cc(OC(C)=O)cc2oc1=O`, the TGI in the test with DMS 273 small cell lung is more than 100 µM; in the test with HOP-18 NSCLC, more than 100 µM; with DMS 114 small cell lung, 70.8 µM; with M19-MEL melanoma, more than 100 µM; in the test with SNB-78 CNS, more than 100 µM; in the test on LXFL 529 NSCLC, more than 100 µM.
Take `NC1CCCC[C@H]1N.N[C@@H]1CCCC[C@@H]1N.O=C(P(=O)([O-])[O-])P(=O)([O-])[O-].[Pt+4].[Pt+4]`: the GI50 with DMS 273 small cell lung was 32.3 µM; in the test with HOP-18 NSCLC, 59.6 µM; in the test with M19-MEL melanoma it was 73 µM; in the test on SNB-78 CNS, more than 100 µM; in the test with LXFL 529 NSCLC, more than 100 µM. In addition, the TGI with DMS 273 small cell lung, in the test on HOP-18 NSCLC, in the test with M19-MEL melanoma, in the test on SNB-78 CNS and in the test on LXFL 529 NSCLC was more than 100 µM throughout.
With `CC(=O)OCC1OC([S-])C(OC(C)=O)C(OC(C)=O)C1OC(C)=O.CC[PH+](CC)CC.CC[PH+](CC)CC.[Au].[Au]` (stereo unspecified), the GI50 in the test on DMS 273 small cell lung is 0.453 µM; with HOP-18 NSCLC, 0.253 µM; with XF 498 CNS it was 0.181 µM; with SNB-78 CNS, 0.311 µM; with LXFL 529 NSCLC, 0.153 µM. Moreover, the TGI turned out to be 2.11 µM in the test on DMS 273 small cell lung; 0.694 µM in the test with HOP-18 NSCLC; 0.449 µM with XF 498 CNS; 0.806 µM in the test with M19-MEL melanoma; 2.79 µM in the test on SNB-78 CNS; 0.322 µM in the test with LXFL 529 NSCLC.
As for `CC(C)c1ccccc1S(=O)c1ccccc1C(C)(C)O` (stereo unspecified), the TGI in the test on MDA-N is more than 100 µM.
As to `O=C(Nc1ccc([N+](=O)[O-])cc1)C1C(=O)C(=O)N(c2ccc([N+](=O)[O-])cc2)C1=O` (stereo unspecified), the TGI is more than 100 µM in the test with DMS 273 small cell lung; more than 100 µM in the test on HOP-18 NSCLC; 35.8 µM with DMS 114 small cell lung; more than 100 µM in the test on SNB-78 CNS; more than 100 µM in the test on LXFL 529 NSCLC; more than 100 µM in the test with RXF-631 renal.
Turning to `O=C(/C=C/c1ccccc1)/C=C/c1ccccc1`, the TGI is more than 100 µM in the test with DMS 273 small cell lung; 92.8 µM with HOP-18 NSCLC; 52.9 µM in the test on DMS 114 small cell lung; 50.2 µM with M19-MEL melanoma; more than 100 µM in the test with SNB-78 CNS; 50.1 µM in the test with LXFL 529 NSCLC. The same compound yielded a TGI in the test with RXF-631 renal of more than 100 µM.
Consider `O=C(O)c1c(-c2nccc3ccccc23)[nH]c(-c2ccccc2)c1S(=O)(=O)O`, for which the TGI with MDA-N was more than 100 µM.
As to `O=C(CSc1nnc(-c2ccccc2NC(=O)C(F)(F)F)c(=O)[nH]1)NC(=O)Nc1ccccc1`, the TGI in the test with DMS 273 small cell lung, in the test with XF 498 CNS, with M19-MEL melanoma, in the test with SNB-78 CNS and in the test with LXFL 529 NSCLC was more than 100 µM each time.
